This note sets out measurements from patent US20240025899A1, “TRIHETEROCYCLIC DERIVATIVE, AND PHARMACEUTICAL COMPOSITION AND APPLICATION THEREOF” (SHANGHAI DE NOVO PHARMATECH CO., LTD., priority 2020, published 2024).

Counter-ions that a name gives are not always drawn.

The experiment relates to OCI-LY19 human B-cell lymphoma. The experiment can be described thus: In vivo drug efficacy, OCI-LY19 human B-cell lymphoma mouse subcutaneous xenograft tumor model. The procedure:
Cell culture: Human B-cell lymphoma OCI-LY19 cells were maintained as a monolayer in MEM-α medium containing 10% fetal bovine serum in a constant temperature incubator at 37° C. with 5% CO2. Tumor cells were subcultured twice a week. Cells in exponential growth phase were harvested and counted for inoculation.
Experimental animals: BALB/c nude mice, 6-8 weeks old, 19-22 g, purchased from Beijing Vital River Laboratory Animal Technology Co., Ltd.
For Vehicle, positive control (AZD6738, CAS number: 1352226-88-0) and compound 2, a total of 6 experimental groups were set up, as shown in Table 5 below:
Experimental method: The OCI-LY19 cell line (3.0×10^6 cells/mouse) was inoculated subcutaneously on the right back of the experimental mouse, and the inoculation volume of each mouse was 0.1 mL, and the growth of tumors was observed regularly, and until the tumor grew to about 100 mm^3, the mice were randomly divided into groups according to the tumor size and body weight, and administered according to the administration plan shown in Table 5, and the mouse body weight and tumor size were measured twice a week during the whole experiment.
tumor volume (mm^3)=0.5×(tumor long diameter×tumor short diameter^2). Tumor size calculation formula: […]
In general terms: Xenograft models place foreign cells or tissue in a host animal.

The mark [1] stands for this setting: Group 3, 5 mg/kg p.o. once a day.
The mark [2] stands for this setting: Group 4, 10 mg/kg p.o. once a day.
[3] abbreviates: Group 5, 10 mg/kg p.o. once a day × 4 days on, 3 days off.
The mark [4] stands for this setting: Group 6, 20 mg/kg p.o. once a day × 4 days on, 3 days off.

Regarding `C[C@@H]1COCCN1c1nc2c(cnn2-c2cc[nH]n2)c2c1CCN2S(C)(=O)=O` [Compound 2, (R)-3-methyl-4-(1-(methylsulfonyl)-6-(1H-pyrazol-3-yl)-1,2,3,6-tetrahydropyrazolo[3,4-b]pyrrolo[2,3-d]pyridin-4-yl)morpholine trifluoroacetate], under setting [1], the “T/C (%)” value turned out to be 17.9%; the “TGI (%)” value is given as 86.0%; the “Tumor volume (10 days, mm^3)” value stood at 109.41 ± 4.35 mm^3; the “Tumor volume (24 days, mm^3)” value is on record as 424.51 ± 77.26 mm^3. Under setting [2], the “T/C (%)” value worked out at 8.5%; the “TGI (%)” value was found to be 95.9%; the “Tumor volume (10 days, mm^3)” value is given as 109.00 ± 4.19 mm^3; the “Tumor volume (24 days, mm^3)” value amounted to 202.09 ± 44.85 mm^3. Under setting [3], the “T/C (%)” value was 15.9%; the “TGI (%)” value was found to be 88.2%; the “Tumor volume (10 days, mm^3)” value came out at 109.20 ± 3.96 mm^3; the “Tumor volume (24 days, mm^3)” value was found to be 375.56 ± 92.96 mm^3. For the same compound, under setting [4], the “T/C (%)” value was determined as 7.9%; the “TGI (%)” value worked out at 96.5%; the “Tumor volume (10 days, mm^3)” value is 109.24 ± 4.22 mm^3; the “Tumor volume (24 days, mm^3)” value is reported as 187.91 ± 27.01 mm^3.
